# What was measured:
# [1] = system: MM cell lines (MM.1S, U266, RPMI-8226, MM.1R); experiment: Annexin V-PI apoptosis, single-agent AR-42 in MM cell lines; type: cell-based, human; conditions: 0.1 μM, 24-hr; all MM cell lines tested
# Procedure: (§1) Growth inhibitory and pro-apoptotic properties of AR-42 as a single agent treatment agent have been reported previously in numerous malignancies, including MM. Because of the potent immunomodulatory effects observed with classical pan-HDACi's, immunology-related gene networks altered upon AR-42 treatment in MM cells were investigated using nCounter technology to analyze the effects of AR-42 on the expression of 511 human genes in MM.1S cells following 24-hr treatment with 0.1 μM AR-42.
# (§2) CD44 surface expression was analyzed by staining cells with CD44-FITC antibody (BD Biosciences) for 30 min. in the dark, at room temperature. Apoptosis was measured by Annexin V-FITC and Propidium Iodide (PI) (Clontech) staining for 15 min. in the dark, at room temperature and data immediately acquired on a Beckman Coulter FC500 (Beckman Coulter) machine. Analysis was conducted using the FlowJo Software vX.0.7 (Tree Star Inc.). For the multiparametric analysis, the bone marrow samples were stained with CD38-PE (347687; BD Bioscience), CD138-APC (347193; BD Bioscience), CD45-ECD (A07784; Beckman Coulter), CD44-FITC (BD Bioscience) and AnnexinV-FITC (Clontech) for 30 minutes, washed with PBS and immediately analyzed with Gallios cytometer (Beckman Coulter).
# [2] = system: CD44; experiment: nCounter GX Human Immunology gene expression in MM.1S cells; type: cell-based; conditions: 0.1 μM, 24-hr, p<0.001
# Procedure: as §1
# Total RNA was prepared using TRIzol (Invitrogen). The RNA was analyzed by nCounter GX Human Immunology Kit, or nCounter Human microRNA Kit, as recommended by the manufacturer (NanoString Technologies, Inc.). A total of 511 immunology related genes and 800 microRNAs were profiled.
# Samples analyzed by NanoString assay were normalized using the variance stabilization. The mean linkage hierarchical clustering algorithm was conducted to identify subgroups of significant miRNAs. […] The obtained data were deposited in the GEO database (accession number).
# [3] = system: CD44; experiment: CD44 protein by immunoblot in MM cells; type: cell-based, human; conditions: 24-hr treatment, dose-dependent, vs DMSO control
# Procedure: Reduction of CD44 mRNA and protein persisted for 48 hours after treatment (FIGS. 2C-2D and data not shown).
# Cells were harvested by centrifugation, washed with PBS and lysed using buffer composed of 50 mM Tris (pH 7.5), 150 mM NaCl, 10% glycerol, 1.0% NP-40, 0.1% SDS, supplemented with protease and phosphatase inhibitors. Protein concentrations were estimated by Bradford assay and equivalent quantities of the lysates were resolved on 4-20% Tris-HCl SDS-PAGE TGX gels (Bio-Rad). Proteins were transferred to nitrocellulose membranes and stained for acetyl-histone H3 (Milipore), acetyl-histone H4 (Milipore), IGF2BP1 (Cell Signaling Technology), IGF2BP3 (IMP-3, Santa Cruz Biotechnology), CD44 (Santa Cruz Biotechnology), CD48 (Abcam), Drosha (Cell Signaling Technology), or glyceraldehyde 3-phosphate dehydrogenase (GAPDH, Cell Signaling Technology), followed by anti-mouse, or anti-rabbit IgG-HRP (GE Healthcare). Signals were developed using Pierce ECL Western Blotting Substrate (Thermo Fisher Scientific).
# [4] = system: CD44; experiment: CD44 cell surface expression by flow cytometry in MM cell lines; type: cell-based, human
# Procedure: The down-regulation of CD44 cell surface expression was also observed by flow cytometry in all MM cell lines tested expressing detectable CD44 levels (FIG. 1D, FIGS. 2E-2F and data not shown).
# as §2
# [5] = system: CD44; experiment: CD44 levels in MM.1S subcutaneous xenograft mice (IHC, serum ELISA); type: in vivo; conditions: 25 mg/kg, 2 injections
# Procedure: To investigate if AR-42 treatment could affect CD44 expression in vivo, a xenograft MM mouse model was created by injecting 1×10^7 viable cells of MM.1S cell line subcutaneously into the right flank of 12 NOD-SCID mice. […] One group of mice (n=4) received intra-peritoneal injections of 25 mg/kg AR-42, while the second group (n=4) was injected with vehicle control (8% DMSO in PBS; Ctrl). Injections were administered once a day (on Monday and Wednesday). Because the anti-tumor activity of AR-42 has been previously reported in preclinical mouse studies, mice were sacrificed 2 days after the second injection in order to avoid tumor size reduction. […] Tumors were excised and used for CD44 immunohistochemical (IHC) studies, while the serum was collected for ELISA assays. […] Thus, AR-42 down-regulates CD44 directly in vivo.
# Blood from xenografted mice (0.6 ml/kg) was collected by retro-orbital bleeding and serum was obtained by centrifuging it at 1500×g for 10 min. […] Finally, 100 […] of Stop Reagent was added and absorbance was read on a spectrophotometer at 450 nm. Soluble CD44 (sCD44) content was calculated based on the readings from the standard and sample dilution factor.
# Animal experiments were performed according to OSU institutional guidelines. […] The tumor size was measured once a week using a caliper, and the volume was calculated in cubed millimeters (mm3), using the formula L×W2/2. […]
# [6] = system: U266, RPMI, and MM1S cells; experiment: Apoptosis (annexin) and necrosis (propidium iodide) by HDAC inhibitors, FIG. 15; type: cell-based, human; conditions: 24 and 48 hours, 0.25, 0.5, and 1 μM
# Procedure: Apoptosis was measured by annexin staining while cell necrosis was measured by propidium iodide staining.
# as §2
compound,measurement,setting,value
"CC(C)[C@H](C(=O)Nc1ccc(C(=O)NO)cc1)c1ccccc1 [AR-42, (S)-N-hydroxy-4-(3-methyl-2-phenylbutanamido)benzamide]",apoptosis by Annexin V-PI staining,[1],without significant increase of apoptosis
same,CD44 gene expression (nCounter),[2],most significantly downregulated
same,CD44 protein levels,[3],consistently downregulated
same,CD44 cell surface expression,[4]; all MM cell lines tested expressing detectable CD44,down-regulation
same,CD44 downregulation compared to other HDACi's,"[4]; at comparable IC50 concentrations, vs SAHA, LBH589, JQ12",greater CD44 downregulation
same,soluble CD44 in serum (ELISA),[5],decreased levels
same,CD44 staining of tumor sections (IHC),[5]; vs control group,significant lower CD44 staining
same,apoptosis (annexin staining),[6],highest level of apoptosis
same,cell necrosis (propidium iodide staining),[6],lowest levels of cell necrosis

# — patent US10022342B2, “Methods and compositions for treating multiple myeloma” (Ohio State Innovation Foundation, priority 2015, dated 2018)
